Laboratory results published in patent publication US8778310B2, “Fluorescent chlorotoxin conjugate and method for intra-operative visualization of cancer” (priority 2005, dated 2014).

Assays:
9L glioma xenografts = assay: In vivo biophotonic imaging of mice with 9L glioma xenografts; parameters: species or system mouse; conditions: versus control mice without 1,10-phenanthroline
Experimental: All mouse studies were conducted in accordance with IACUC approved protocols. Subcutaneous xenografts were established in nu/nu (nude) mice using 9L, a rat gliosarcoma cell line (ATCC), and RH30, a rhabdomyosarcoma cell line. The xenografts were established using 1 million 9L or RH30 cells suspended in serum free media and matrigel at a 1:1 ratio. Intracranial xenografts were established by stereotaxic injection of 1 million 9L cells suspended in 10 μl PBS into the brain 3 mm lateral and posterior to the bregma. ND2:SmoA1 medulloblastoma mice, TRAMP prostate cancer mice and Apc^1638N intestinal adenoma and adenocarcinoma mice were as previously described. See, Fodde, R., et al., A targeted chain-termination mutation in the mouse Apc gene results in multiple intestinal tumors. Proc. Natl. Acad. Sci. U.S.A., 1994. 91(19): p. 8969-73; Greenberg, N. M., et al., Prostate cancer in a transgenic mouse. Proc. Natl. Acad. Sci. U.S.A., 1995. 92(8): p. […]
CTX:Cy5.5 (0.1-0.2 ml of 10-20 μM) was administered intravenously by tail vein injection. […] Relevant organs and tumors were dissected from some of the animals and fluorescence image were obtained immediately following dissection. In time course experiments, all images were captured using identical system settings and fluorescence emission was normalized to photons per second per centimeter squared per steradian (p/s/cm^2/sr).

9L glioma cells = assay: In vitro imaging of CTX:Cy5.5 binding to 9L glioma cells (NIR/confocal microscopy); type: cell-based, rat; conditions: pre-incubation with MMP-2 inhibitor
Experimental: 9L/lacZ gliosarcoma cells (ATCC, VA) and primary human foreskin fibroblast (HFF) were maintained in DMEM and RPMI medium both supplemented with 1% sodium pyruvate, 1% streptomycin/penicillin and 10% FBS (Hyclone, UT), respectively. 2×10^5 cells were seeded on sterile cover slips 36 hrs prior to labeling and confocal microscopy. Cells were cultured with 1 ml of CTX:CY5.5 conjugate (1 uM) for 2 hours in a 37° C. humidified incubator maintained at 5% CO2. Cover slips were washed 2 times in cell culture medium and 2 times in PBS buffer. Following this step, cell membranes were stained with 1 μM solution of FM 1-43FX (Molecular Probes, OR) for 20 min in dark at room temperature, washed 2 times in PBS and fixed in 4% paraformaldehyde. Cellular nuclei were stained with 4′,6-diamidino-2-phenylndole (DAPI, Sigma Aldrich, MO).
Confocal images were acquired using a DeltaVision SA3.1 Wide-Field Deconvolution Microscope (Applied Precision, WA) equipped with DAPI, TRITC, and Cy5 filters. Image processing was performed using SoftWoRX (Applied Precision, WA).
To determine whether CTX retained specific binding to glioma cells after conjugation to Cy5.5, we incubated the conjugate with 9L glioma cells and primary fibroblasts and evaluated binding by NIR microscopy. […]

[1] = test system: glioma and normal brain histologic sections; assay: Staining of histologic sections of glioma and normal brain; parameters: species or system human
[2] = previously reported; cited from earlier work
[3] = type: in vivo, mouse
Experimental: To further assess potential CTX toxicity at doses used for optical imaging, complete necropsy was performed on mice two weeks after exposure to CTX.

## c1cnc2c(c1)ccc1cccnc12 [1,10-phenanthroline]
9L glioma xenografts
  Specific binding of CTX:Cy5.5 in mice pre-treated with 1,10-phenanthroline: six-fold lower
9L glioma cells
  Binding of CTX:Cy5.5 to 9L glioma cells after pre-incubation with 1,10-phenanthroline: blocked

## Cy5.5
[1]
  staining of glioma section: does not stain glioma

## chlorotoxin [CTX]
[2]
  locomotor activity in mice: reduce locomotor activity
[3]; doses used for optical imaging
  laboratory evaluation (electrolytes, blood counts, liver and kidney function): no alteration
  toxicity overall: no toxicity could be detected
[3]; doses used for optical imaging, b143: two weeks after exposure
  pathologic changes in organs (necropsy): indistinguishable from control mice
[3]; injected mice versus control mice
  open field observation: indistinguishable from control mice
